Experimental data published in PubChem BioAssay (NCI).
“And” between values parts separate entries of the source, which are not always exact repeats. Equal entries are not always repeated.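 Grown in 96-well plates, cells were treated for 48 hours with each compound at five concentrations. Insufficient inhibition: endpoint recorded as highest concentration tested. GI50 marks 50% less growth. Definition used: TGI = concentration required for complete inhibition of growth.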

Each molecule was assayed on NCI-H522 lung (assay: growth of human tumour cells (NCI), 48 h).
For `CC(=O)OC1Oc2ccccc2-c2oc(=O)c(-c3cc(=O)oc4cc(O)ccc34)cc21` (stereo not drawn), the GI50 was 16900 nM and the TGI was 43 µM. `CC(C)(C)C(=O)OCOP(=O)(OCOC(=O)C(C)(C)C)C1CCCN(O)C1=O` (stereo not drawn) was tested, and the GI50 was 308 nM and the TGI was 1.83 µM. For `CC(SC(C)C(=O)N/N=C/c1cccc(Cl)c1)C(=O)N/N=C\c1cccc(Cl)c1` (stereo not drawn), the GI50 was 3570 nM and the TGI was 11.6 µM. Work on `CCOC(=O)/C=C/C(C(=O)/C=C/c1ccc(OC2CCCCO2)c(OC)c1)=C(O)\C=C\c1ccc(OC2CCCCO2)c(OC)c1` (stereo not drawn) yielded a GI50 of 2220 nM and a TGI of 6.68 µM. With `Cc1ccc(Cl)cc1Nc1nc(C(F)(F)F)ccc1C(=O)N1CCN(c2ccc(F)cc2)CC1` the GI50 was 12300 nM and the TGI was 30.2 µM. For `COC(=O)c1cc2c(cc1O)[C@@H](NC(C)=O)CCc1cc(OC)c(OC)c(OC)c1-2`, the TGI was 0.19 µM. With `CC1OC2CC(=O)OC2C2=C1C(=O)c1c(O)cccc1C2=O` (stereo not drawn) the GI50 was less than 16.8 nM and the TGI was 0.0402 µM. `C=C(C)[C@@]12OC3(/C=C/C=C/CCCCC)O[C@@H]1[C@@H]1[C@@H]4O[C@]4(CO)[C@@H](O)[C@]4(O)C(=O)C(C)=C[C@H]4[C@@]1(O3)[C@H](C)[C@H]2OC(=O)c1ccccc1` was tested, and the GI50 was 1270 nM and the TGI was 2.71 µM.

The molecules below were run on OVCAR-3 ovarian (assay: growth of human tumour cells (NCI), 48 h).
`O=C(CCCn1ccnc1[N+](=O)[O-])NCCn1cncc1[N+](=O)[O-]` showed a TGI greater than 100 µM. In the case of `Cn1cc(C2=C(c3ccc4ccccc4c3)C(=O)NC2=O)c2ccccc21`, the GI50 is reported as greater than 25000 nM and the TGI is reported as greater than 25 µM. `O=C(OCc1ccc2cccc(O)c2n1)N1CCN(C(=O)c2cc3cc(F)ccc3[nH]2)CC1` was tested, and the GI50 was 460 nM and the TGI was 1.77 µM. `C[As](C)SC1OC(CO)C(O)C1O` (stereo not drawn) was tested, and the GI50 was 62.3 nM and the TGI was 0.203 µM. For `Cn1c(=O)c2c(nc(Nc3cc(=O)[nH]c(=O)[nH]3)n2Cc2ccccc2)n(C)c1=O`, the GI50 was greater than 100000 nM and the TGI was greater than 100 µM. Work on `COc1ccc2c(c1)CCC1C2CC[C@@]2(C)C1CC1=CC(COC(C)=O)C3C(=O)c4ccccc4C(=O)C3C12` (stereo partly drawn) yielded a GI50 greater than 100000 nM and a TGI greater than 100 µM. `C=C(F)C(=O)N1CCN(c2nc(OC[C@@H]3CCCN3C)nc3c2CCN(c2cccc4cccc(Cl)c24)C3)C[C@@H]1CC#N` was tested, and the GI50 was 1150 nM and the TGI was 3.28 µM. `Cc1c2cccnc2c(C)c2c1c1cc(CO)ccc1n2C` gave a GI50 of 2380 nM. `CC/C(=C(/c1ccc(OCCN(C)C)cc1)c1ccc(OC(=O)CCCCC(=O)c2c(C)[nH]c(/C=C3\N=C(c4ccc[nH]4)C=C3OC)c2C)cc1)c1ccccc1` was tested, and the GI50 was 11700 nM and the TGI was 27 µM. `CC[C@]12C=CCN3CC[C@@]4(c5ccc(OC)cc5N(C)[C@H]4[C@@](O)(C(=O)OC)[C@@H]1OC(=O)CCC[P+](c1ccccc1)(c1ccccc1)c1ccccc1)[C@@H]32` was tested, and the GI50 was 291 nM and 447 nM and the TGI was 2.97 µM and 1.99 µM. In the case of `CC(=O)OC1Oc2ccccc2-c2oc(=O)c(-c3cc(=O)oc4cc(O)ccc34)cc21` (stereo not drawn), the GI50 is reported as 13800 nM and the TGI is reported as 41.4 µM. Work on `CC(C)(C)C(=O)OCOP(=O)(OCOC(=O)C(C)(C)C)C1CCCN(O)C1=O` (stereo not drawn) yielded a GI50 of 559 nM and a TGI greater than 100 µM. Molecule `CC(SC(C)C(=O)N/N=C/c1cccc(Cl)c1)C(=O)N/N=C\c1cccc(Cl)c1` (stereo not drawn) has a GI50 of 2030 nM and a TGI of 3.81 µM. In the case of `CCOC(=O)/C=C/C(C(=O)/C=C/c1ccc(OC2CCCCO2)c(OC)c1)=C(O)\C=C\c1ccc(OC2CCCCO2)c(OC)c1` (stereo not drawn), the GI50 is reported as 2580 nM and the TGI is reported as 8.47 µM. `Cc1ccc(Cl)cc1Nc1nc(C(F)(F)F)ccc1C(=O)N1CCN(c2ccc(F)cc2)CC1` gave a GI50 of 10700 nM and a TGI of 24 µM. With `CC1OC2CC(=O)OC2C2=C1C(=O)c1c(O)cccc1C2=O` (stereo not drawn) the GI50 was 29.7 nM and the TGI was 0.0851 µM. Molecule `C=C(C)[C@@]12OC3(/C=C/C=C/CCCCC)O[C@@H]1[C@@H]1[C@@H]4O[C@]4(CO)[C@@H](O)[C@]4(O)C(=O)C(C)=C[C@H]4[C@@]1(O3)[C@H](C)[C@H]2OC(=O)c1ccccc1` has a GI50 of 1680 nM and a TGI of 3.08 µM.

What follows are molecules tested on SF-539 CNS (assay: growth of human tumour cells (NCI), 48 h).
`O=C(CCCn1ccnc1[N+](=O)[O-])NCCn1cncc1[N+](=O)[O-]` showed a TGI greater than 100 µM. Molecule `Cn1cc(C2=C(c3ccc4ccccc4c3)C(=O)NC2=O)c2ccccc21` has a GI50 greater than 25000 nM and a TGI greater than 25 µM. Molecule `O=C(OCc1ccc2cccc(O)c2n1)N1CCN(C(=O)c2cc3cc(F)ccc3[nH]2)CC1` has a GI50 of 1150 nM and a TGI of 2.36 µM. Molecule `C[As](C)SC1OC(CO)C(O)C1O` (stereo not drawn) has a GI50 of 222 nM and a TGI of 0.749 µM. `Cn1c(=O)c2c(nc(Nc3cc(=O)[nH]c(=O)[nH]3)n2Cc2ccccc2)n(C)c1=O` was tested, and the GI50 was greater than 100000 nM and the TGI was greater than 100 µM. In the case of `COc1ccc2c(c1)CCC1C2CC[C@@]2(C)C1CC1=CC(COC(C)=O)C3C(=O)c4ccccc4C(=O)C3C12` (stereo partly drawn), the GI50 is reported as greater than 100000 nM and the TGI is reported as greater than 100 µM. For `C=C(F)C(=O)N1CCN(c2nc(OC[C@@H]3CCCN3C)nc3c2CCN(c2cccc4cccc(Cl)c24)C3)C[C@@H]1CC#N`, the GI50 was 936 nM and the TGI was 2.25 µM. `Cc1c2cccnc2c(C)c2c1c1cc(CO)ccc1n2C` was tested, and the GI50 was 2490 nM and the TGI was 11.7 µM. `CC/C(=C(/c1ccc(OCCN(C)C)cc1)c1ccc(OC(=O)CCCCC(=O)c2c(C)[nH]c(/C=C3\N=C(c4ccc[nH]4)C=C3OC)c2C)cc1)c1ccccc1` was tested, and the GI50 was 7320 nM and the TGI was 20.6 µM. In the case of `CC[C@]12C=CCN3CC[C@@]4(c5ccc(OC)cc5N(C)[C@H]4[C@@](O)(C(=O)OC)[C@@H]1OC(=O)CCC[P+](c1ccccc1)(c1ccccc1)c1ccccc1)[C@@H]32`, the GI50 is reported as 648 nM and 769 nM and the TGI is reported as 5.78 µM and 4.78 µM. `CC(=O)OC1Oc2ccccc2-c2oc(=O)c(-c3cc(=O)oc4cc(O)ccc34)cc21` (stereo not drawn) showed a GI50 of 17400 nM and a TGI of 38.2 µM. `CC(C)(C)C(=O)OCOP(=O)(OCOC(=O)C(C)(C)C)C1CCCN(O)C1=O` (stereo not drawn) gave a GI50 of 1520 nM and a TGI of 11.8 µM. With `CC(SC(C)C(=O)N/N=C/c1cccc(Cl)c1)C(=O)N/N=C\c1cccc(Cl)c1` (stereo not drawn) the GI50 was 16300 nM and the TGI was 44.2 µM. Molecule `CCOC(=O)/C=C/C(C(=O)/C=C/c1ccc(OC2CCCCO2)c(OC)c1)=C(O)\C=C\c1ccc(OC2CCCCO2)c(OC)c1` (stereo not drawn) has a GI50 of 20300 nM and a TGI of 53.1 µM. Work on `Cc1ccc(Cl)cc1Nc1nc(C(F)(F)F)ccc1C(=O)N1CCN(c2ccc(F)cc2)CC1` yielded a GI50 of 14800 nM and a TGI of 30.2 µM. `COC(=O)c1cc2c(cc1O)[C@@H](NC(C)=O)CCc1cc(OC)c(OC)c(OC)c1-2` was tested, and the TGI was 76.6 µM. `CC1OC2CC(=O)OC2C2=C1C(=O)c1c(O)cccc1C2=O` (stereo not drawn) gave a GI50 of 120 nM and a TGI of 0.284 µM. Molecule `C=C(C)[C@@]12OC3(/C=C/C=C/CCCCC)O[C@@H]1[C@@H]1[C@@H]4O[C@]4(CO)[C@@H](O)[C@]4(O)C(=O)C(C)=C[C@H]4[C@@]1(O3)[C@H](C)[C@H]2OC(=O)c1ccccc1` has a GI50 of 1410 nM and a TGI of 2.8 µM.

These molecules were tested on SNB-19 CNS (assay: growth of human tumour cells (NCI), 48 h).
Molecule `Cn1cc(C2=C(c3ccc4ccccc4c3)C(=O)NC2=O)c2ccccc21` has a GI50 greater than 25 µM and a TGI greater than 25 µM.
